# pIC50: −log10 of the molar value.
# System: HepG2
# Experiment: Cytotoxicity against human HepG2 cells after 72 hrs by SRB assay
# Type: functional, cell-based
# Settings: HepG2, 72 h
row,SMILES,pIC50
1,CC[C@H](C)/C=C/C1=CC2=C(Cl)C(=O)[C@@]3(C)OC(=O)C(C(=O)[C@H](C)[C@@H](C)O)=C3C2=CN1CCO,4.27
2,C/C=C(\C)C(=O)C1=C2C3=CN(CCO)C(/C=C/[C@@H](C)CC)=CC3=C(Cl)C(=O)[C@@]2(C)OC1=O,4.70
3,C/C=C(\C)C(=O)C1=C2C3=CN(CCCC(=O)O)C(/C=C/[C@@H](C)CC)=CC3=C(Cl)C(=O)[C@@]2(C)OC1=O,5.77
4,CC[C@@]1(O)C(=O)OCc2c1cc1n(c2=O)Cc2cc3ccccc3nc2-1 [CAMPTOTHECIN],4.49
5,CC[C@H](C)/C=C/C1=CC2=C(Cl)C(=O)[C@@]3(C)OC(=O)C(C(=O)[C@H](C)[C@@H](C)O)=C3C2=CO1,4.45
6,CC[C@H](C)/C=C/C1=CC2=C(Cl)C(=O)[C@@]3(C)OC4(O)C(C(=O)O[C@@H](C)[C@@H]4C)C3C2=CO1 (some centres not stated),< 4.00
7,C/C=C(\C)C(=O)C1=C2C3=COC(/C=C/[C@@H](C)CC)=CC3=C(Cl)C(=O)[C@@]2(C)OC1=O [CHAETOVIRIDIN E],4.39

# From ChEMBL document CHEMBL2380220, “Cytotoxic azaphilone alkaloids from Chaetomium globosum TY1” (Bioorg Med Chem Lett, 2013)
